target: Human factor D (Homo sapiens (Human), UniProt P00746); assay: Human Factor D Assay; format: biochemical; conditions: Human factor D purified from human serum, 80 nM; substrate Z-L-Lys-SBzl with DTNB; assay of Example 8
Procedure: The assay of Example 8 was used to determine the IC50's of the compounds. Other standard factor D inhibition assays are also available.
Example 8. Human Factor D Assay
Human factor D (purified from human serum, Complement Technology, Inc.) at 80 nM final concentration is incubated with test compound at various concentrations for 5 minutes at room temperature in 50 mM Tris, 1M NaCl, pH 7.5. A synthetic substrate Z-L-Lys-SBzl and DTNB (Ellman's reagent) are added to final concentrations of 100 µM each. The increase in color is recorded at OD405 nm in a microplate in kinetic mode over 30 minutes with 30 second time points in a […]. IC50 values are calculated by non-linear regression from the percentage of inhibition of complement factor D activity as a function of test compound concentration.

Chain of Human factor D (P00746 26-253): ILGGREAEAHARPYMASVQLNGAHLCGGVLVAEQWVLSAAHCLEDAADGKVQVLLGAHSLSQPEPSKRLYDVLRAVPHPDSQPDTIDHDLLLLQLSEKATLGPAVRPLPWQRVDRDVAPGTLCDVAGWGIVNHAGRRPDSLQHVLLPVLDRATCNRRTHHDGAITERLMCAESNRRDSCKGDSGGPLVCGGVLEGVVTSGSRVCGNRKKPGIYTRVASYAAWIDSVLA

Question: How did the IC50 turn out when `CC(=O)c1cn(CC(=O)N2C[C@H](F)C[C@H]2C(=O)Nc2cccc(OC(F)(F)F)c2F)c2cc(OCP(=O)(O)O)ccc12` [Compound 27, (3-acetyl-1-(2-((2S,4R)-4-fluoro-2-(2-fluoro-3-(trifluoromethoxy)phenyl-carbamoyl)pyrrolidin-1-yl)-2-oxoethyl)-1H-indol-6-yloxy)methylphosphonic acid] was run?
Answer: Its IC50 is < 1000 nM.

Question: For `CC(C)(C)NS(=O)(=O)COc1ccc2c(C(N)=O)nn(CC(=O)N3C[C@H](F)C[C@H]3C(=O)Nc3cccc(-c4ccccc4Cl)c3F)c2c1` [Compound 28, 6-(N-tert-butylsulfamoylmethoxy)-1-(2-((2S,4R)-2-(2′-chloro-2-fluorobiphenyl-3-ylcarbamoyl)-4-fluoropyrrolidin-1-yl)-2-oxoethyl)-1H-indazole-3-carboxamide], which IC50 is on record?
Answer: Its IC50 is < 1000 nM.

Question: With `CCOP(=O)(COc1ccc2c(c1)c(C(C)=O)cn2CC(=O)N1C[C@H](F)C[C@H]1C(=O)NCc1cccc(Cl)c1F)OCC` [Compound 10, diethyl (3-acetyl-1-(2-((2S,4R)-2-(3-chloro-2-fluorobenzylcarbamoyl)-4-fluoropyrrolidin-1-yl)-2-oxoethyl)-1H-indol-5-yloxy)methylphosphonate] as the molecule, how does the IC50 read?
Answer: The IC50 was < 1000 nM.

Question: For `CC(=O)c1cn(CC(=O)N2C[C@H](F)C[C@H]2C(=O)NCc2cccc(Cl)c2F)c2cc(OCC3CC3)ccc12` [Compound 1, (2S,4R)-1-(2-(3-acetyl-6-(cyclopropylmethoxy)-1H-indol-1-yl)acetyl)-N-(3-chloro-2-fluorobenzyl)-4-fluoropyrrolidine-2-carboxamide], which IC50 is on record?
Answer: Its IC50 is < 1000 nM.

Question: `CC(=O)c1cn(CC(=O)N2C[C@H](F)C[C@H]2C(=O)Nc2cccc(-c3ccccc3Cl)c2F)c2ccc(Oc3ncc(C)cn3)cc12` [Compound 40, (2S,4R)-1-(2-(3-acetyl-5-(5-methylpyrimidin-2-yloxy)-1H-indol-1-yl)acetyl)-N-(2′-chloro-2-fluorobiphenyl-3-yl)-4-fluoropyrrolidine-2-carboxamide] was tested. Which IC50 did it give?
Answer: The IC50 was < 1000 nM.

Question: With `CC(=O)c1cn(CC(=O)N2C[C@H](F)C[C@H]2C(=O)NCc2cccc(Cl)c2F)c2cc(OCCC3CC3)ccc12` [Compound 5, (2S,4R)-1-(2-(3-acetyl-6-(2-cyclopropylethoxy)-1H-indol-1-yl)acetyl)-N-(3-chloro-2-fluorobenzyl)-4-fluoropyrrolidine-2-carboxamide] as the molecule, how does the IC50 read?
Answer: Its IC50 is < 1000 nM.

Question: `CC(=O)c1cn(CC(=O)N2C[C@H](F)C[C@H]2C(=O)NCc2cccc(Cl)c2F)c2ccc(OS(=O)(=O)C(F)(F)F)cc12` [Compound 9, 3-acetyl-1-(2-((2S,4R)-2-(3-chloro-2-fluorobenzylcarbamoyl)-4-fluoropyrrolidin-1-yl)-2-oxoethyl)-1H-indol-5-yl trifluoromethanesulfonate] was tested. Which IC50 did it give?
Answer: The IC50 was < 1000 nM.

Question: `CC(=O)c1cn(CC(=O)N2C[C@H](F)C[C@H]2C(=O)Nc2cccc(-c3ccccc3Cl)c2F)c2ccc(Oc3cnc(C#N)nc3)cc12` [Compound 36, (2S,4R)-1-(2-(3-acetyl-5-(2-cyanopyrimidin-5-yloxy)-1H-indol-1-yl)acetyl)-N-(2′-chloro-2-fluorobiphenyl-3-yl)-4-fluoropyrrolidine-2-carboxamide] was tested. Which IC50 did it give?
Answer: The IC50 was < 1000 nM.

Question: `CC(=O)c1cn(CC(=O)N2C[C@H](F)C[C@H]2C(=O)Nc2ccc(OC(F)(F)F)c(F)c2)c2cc(OCP(=O)(O)O)ccc12` [Compound 25, (3-acetyl-1-(2-((2S,4R)-4-fluoro-2-(3-fluoro-4-(trifluoromethoxy)phen-ylcarbamoyl)pyrrolidin-1-yl)-2-oxoethyl)-1H-indol-6-yloxy)methylphosphonic acid] was tested. Which IC50 did it give?
Answer: Its IC50 is < 1000 nM.

Question: `CCCCCCCCCCCCCCCCOCCCOP(=O)(O)COc1ccc2c(C(C)=O)cn(CC(=O)N3C[C@H](F)C[C@H]3C(=O)NCc3cccc(Cl)c3F)c2c1` [Compound 20, 3-(hexadecyloxy)propyl hydrogen (3-acetyl-1-(2-((2S,4R)-2-(3-chloro-2-fluorobenzylcarbamoyl)-4-fluoropyrrolidin-1-yl)-2-oxoethyl)-1H-indol-6-yloxy)methylphosphonate] was tested. Which IC50 did it give?
Answer: The IC50 was < 1000 nM.

Question: With `CC(=O)c1cn(CC(=O)N2C[C@H](F)C[C@H]2C(=O)NCc2cccc(Cl)c2F)c2ccc(OCP(=O)(O)O)cc12` [Compound 11, (3-acetyl-1-(2-((2S,4R)-2-(3-chloro-2-fluorobenzylcarbamoyl)-4-fluoropyrrolidin-1-yl)-2-oxoethyl)-1H-indol-5-yloxy)methylphosphonic acid] as the molecule, how does the IC50 read?
Answer: Its IC50 is < 1000 nM.

Question: `CC(=O)c1cn(CC(=O)N2C[C@H](F)C[C@H]2C(=O)NCc2cccc(Cl)c2F)c2cc(OCP(=O)(OCOC(=O)OC(C)C)OCOC(=O)OC(C)C)ccc12` [Compound 12, (((3-acetyl-1-(2-((2S,4R)-2-(3-chloro-2-fluorobenzylcarbamoyl)-4-fluoropyrrolidin-1-yl)-2-oxoethyl)-1H-indol-6-yloxy)methyl)phospho-ryl)bis(oxy)bis(methylene) isopropyl dicarbonate] was tested. Which IC50 did it give?
Answer: Its IC50 is < 1000 nM.

Question: `CCC(=O)OC(OP(=O)(COc1ccc2c(C(C)=O)cn(CC(=O)N3C[C@H](F)C[C@H]3C(=O)NCc3cccc(Cl)c3F)c2c1)OC(OC(=O)CC)C(C)C)C(C)C` (stereo partly drawn) [Compound 23, 1,1′-(((3-acetyl-1-(2-((2S,4R)-2-(3-chloro-2-fluorobenzylcarbamoyl)-4-fluoropyrrolidin-1-yl)-2-oxoethyl)-1H-indol-6-yloxy)methyl)phosph-oryl)bis(oxy)bis(2-methylpropane-1,1-diyl) dipropionate] was tested. Which IC50 did it give?
Answer: The IC50 was < 1000 nM.

Question: Which IC50 does the source give for `CC(=O)c1cn(CC(=O)N2C[C@H](F)C[C@H]2C(=O)Nc2cccc(-c3ccccc3Cl)c2F)c2ccc(Oc3ncc(F)cn3)cc12` [Compound 37, (2S,4R)-1-(2-(3-acetyl-5-(5-fluoropyrimidin-2-yloxy)-1H-indol-1-yl)acetyl)-N-(2′-chloro-2-fluorobiphenyl-3-yl)-4-fluoropyrrolidine-2-carboxamide] here?
Answer: The IC50 was < 1000 nM.

Question: How did the IC50 turn out when `CC(=O)c1cn(CC(=O)N2C[C@H](F)C[C@H]2C(=O)Nc2cccc(-c3ccccc3Cl)c2F)c2ccc(Oc3ncccn3)cc12` [Compound 38, (2S,4R)-1-(2-(3-acetyl-5-(pyrimidin-2-yloxy)-1H-indol-1-yl)acetyl)-N-(2′-chloro-2-fluorobiphenyl-3-yl)-4-fluoropyrrolidine-2-carboxamide] was run?
Answer: Its IC50 is < 1000 nM.

Question: For `CC(=O)c1cn(CC(=O)N2C[C@H](F)C[C@H]2C(=O)NCc2cccc(Cl)c2F)c2cc(OCP(=O)(OCOC(=O)C(C)(C)C)OCOC(=O)C(C)(C)C)ccc12` [Compound 21, (((3-acetyl-1-(2-((2S,4R)-2-(3-chloro-2-fluorobenzylcarbamoyl)-4-fluoropyrrolidin-1-yl)-2-oxoethyl)-1H-indol-6-yloxy)methyl)phosph-oryl)bis(oxy)bis(meth-ylene) bis(2,2-dimethylpropanoate)], which IC50 is on record?
Answer: The IC50 was < 1000 nM.

Question: How did the IC50 turn out when `CCOP(=O)(COc1ccc2c(C(C)=O)cn(CC(=O)N3C[C@H](F)C[C@H]3C(=O)NCc3cccc(Cl)c3F)c2c1)OCC` [Compound 7, diethyl (3-acetyl-1-(2-((2S,4R)-2-(3-chloro-2-fluorobenzylcarbamoyl)-4-fluoropyrrolidin-1-yl)-2-oxoethyl)-1H-indol-6-yloxy)methylphosphonate] was run?
Answer: Its IC50 is < 1000 nM.

Question: How did the IC50 turn out when `NC(=O)c1nn(CC(=O)N2C[C@H](F)C[C@H]2C(=O)Nc2cccc(-c3ccccc3Cl)c2F)c2cc(OCS(N)(=O)=O)ccc12` [Compound 29, 1-(2-((2S,4R)-2-(2′-chloro-2-fluorobiphenyl-3-ylcarbamoyl)-4-fluoropyrrolidin-1-yl)-2-oxoethyl)-6-(sulfamoylmethoxy)-1H-indazole-3-carboxamide] was run?
Answer: The IC50 was < 1000 nM.

Question: `CC(=O)c1cn(CC(=O)N2C[C@H](F)C[C@H]2C(=O)Nc2cccc(Br)n2)c2ccc(Oc3ncc(C)cn3)cc12` [Compound 41, (2S,4R)-1-(2-(3-acetyl-5-(5-methylpyrimidin-2-yloxy)-1H-indol-1-yl)acetyl)-N-(6-bromopyridin-2-yl)-4-fluoropyrrolidine-2-carboxamide] was tested. Which IC50 did it give?
Answer: The IC50 was < 1000 nM.

Question: `CC(=O)c1cn(CC(=O)N2C[C@H](F)C[C@H]2C(=O)NCc2cccc(Cl)c2F)c2cc(OS(=O)(=O)C(F)(F)F)ccc12` [Compound 2, 3-acetyl-1-(2-((2S,4R)-2-(3-chloro-2-fluorobenzylcarbamoyl)-4-fluoropyrrolidin-1-yl)-2-oxoethyl)-1H-indol-6-yl trifluoromethanesulfonate] was tested. Which IC50 did it give?
Answer: The IC50 was < 1000 nM.

Question: For `CC(=O)c1cn(CC(=O)N2C[C@H](F)C[C@H]2C(=O)NCc2cccc(Cl)c2F)c2cc(OCP(=O)(O)OCOC(=O)OC(C)C)ccc12` [Compound 13, (((3-acetyl-1-(2-((2S,4R)-2-(3-chloro-2-fluorobenzylcarbamoyl)-4-fluoropyrrolidin-1-yl)-2-oxoethyl)-1H-indol-6-yloxy)methyl)(hydro-xy)phosphoryloxy)meth-yl isopropyl carbonate], which IC50 is on record?
Answer: Its IC50 is < 1000 nM.

Question: How did the IC50 turn out when `CC(=O)c1cn(CC(=O)N2C[C@H](F)C[C@H]2C(=O)NCc2cccc(Cl)c2F)c2cc(OCP(=O)(O)O)ccc12` [Compound 8, (3-acetyl-1-(2-((2S,4R)-2-(3-chloro-2-fluorobenzylcarbamoyl)-4-fluoropyrrolidin-1-yl)-2-oxoethyl)-1H-indol-6-yloxy)methylphosphonic acid] was run?
Answer: The IC50 was < 1000 nM.

Question: How did the IC50 turn out when `CC(=O)c1cn(CC(=O)N2C[C@H](F)C[C@H]2C(=O)Nc2cccc(-c3ccccc3Cl)c2F)c2cc(Oc3ncccn3)ccc12` [Compound 32, (2S,4R)-1-(2-(3-acetyl-6-(pyrimidin-2-yloxy)-1H-indol-1-yl)acetyl)-N-(2′-chloro-2-fluorobiphenyl-3-yl)-4-fluoropyrrolidine-2-carboxamide] was run?
Answer: The IC50 was < 1000 nM.

Question: For `CC(=O)c1cn(CC(=O)N2C[C@H](F)C[C@H]2C(=O)Nc2cccc(-c3ccccc3Cl)c2F)c2ccc(Oc3cnc(Cl)nc3)cc12` [Compound 43, (2S,4R)-1-(2-(3-acetyl-5-(2-chloropyrimidin-5-yloxy)-1H-indol-1-yl)acetyl)-N-(2′-chloro-2-fluorobiphenyl-3-yl)-4-fluoropyrrolidine-2-carboxamide], which IC50 is on record?
Answer: Its IC50 is < 1000 nM.
